Legend:
Adenosine A2B receptor = target: T1, Adenosine A2B receptor (Homo sapiens, UniProt P29275); experiment: radioligand displacement, filtration, Cheng-Prusoff; type: binding; conditions: [3H]DPCPX; receptor preparation from HEK293 cells
T1 construct: gene ADORA2B; cloned human receptor in HEK293 cells; cells provided by Cerep
T1 sequence (P29275 1-332): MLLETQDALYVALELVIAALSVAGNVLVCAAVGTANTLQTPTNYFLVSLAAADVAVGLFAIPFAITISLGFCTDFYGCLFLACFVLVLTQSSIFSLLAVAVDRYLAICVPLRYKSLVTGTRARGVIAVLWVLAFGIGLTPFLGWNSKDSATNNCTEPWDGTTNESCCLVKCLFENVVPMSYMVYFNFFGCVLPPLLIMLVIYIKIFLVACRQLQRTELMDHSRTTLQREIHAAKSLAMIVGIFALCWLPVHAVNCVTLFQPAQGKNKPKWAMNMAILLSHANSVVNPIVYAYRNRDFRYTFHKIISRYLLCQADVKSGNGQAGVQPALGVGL
Excerpt: radioligand displacement, filtration, Cheng-Prusoff on Adenosine A2B receptor

[1] = target: T2, Phosphodiesterase 4 enzyme; experiment: radiometric enzyme inhibition assay, scintillation counting; type: biochemical; conditions: [3H]cAMP substrate; enzyme preparation from U-937 cells
T2 construct: gene PDE4A; native enzyme preparation from U-937 cells; provided by Cerep
Excerpt: radiometric enzyme inhibition assay, scintillation counting on Phosphodiesterase 4 enzyme

[2] = target: T3, Phosphodiesterase 4 rolipram binding; experiment: radioligand displacement, filtration, Cheng-Prusoff; conditions: [3H]rolipram; total brain; high-affinity rolipram-binding site
T3 construct: gene Pde4a; provided by Cerep
Excerpt: radioligand displacement, filtration, Cheng-Prusoff on Phosphodiesterase 4 rolipram binding

Adenosine A3 receptor = target: T4, Adenosine A3 receptor (Homo sapiens, UniProt P0DMS8); experiment: as above; type: binding; conditions: [3H]AB-MECA; receptor preparation from HEK293 cells
T4 construct: gene ADORA3; cloned human receptor in HEK293 cells; cells provided by Cerep
T4 sequence (P0DMS8 1-318): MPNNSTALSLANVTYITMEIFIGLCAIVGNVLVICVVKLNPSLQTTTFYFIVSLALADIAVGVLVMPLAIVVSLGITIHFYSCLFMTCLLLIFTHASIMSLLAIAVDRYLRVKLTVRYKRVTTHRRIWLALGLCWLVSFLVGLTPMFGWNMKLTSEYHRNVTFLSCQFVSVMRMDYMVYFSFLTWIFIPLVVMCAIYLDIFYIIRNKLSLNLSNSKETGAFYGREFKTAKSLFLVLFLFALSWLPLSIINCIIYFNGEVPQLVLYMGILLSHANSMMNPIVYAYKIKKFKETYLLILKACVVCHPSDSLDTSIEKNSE
Excerpt: radioligand displacement, filtration, Cheng-Prusoff on Adenosine A3 receptor

Adenosine A2A receptor = target: T5, Adenosine A2A receptor (Homo sapiens, UniProt P29274); experiment: as above; type: binding; conditions: [3H]CGS21680; receptor preparation from HEK293 cells
T5 construct: gene ADORA2A; cloned human receptor in HEK293 cells; cells provided by Cerep
Excerpt: radioligand displacement, filtration, Cheng-Prusoff on Adenosine A2A receptor

[3] = target: T6, Adenosine A1 receptor (A1R) (Homo sapiens, UniProt P30542); experiment: as above; type: binding; conditions: [3H]DPCPX; receptor preparation from CHO cells; antagonist
T6 construct: gene ADORA1; cloned human receptor in CHO cells; cells provided by Cerep
T6 sequence (P30542 1-326): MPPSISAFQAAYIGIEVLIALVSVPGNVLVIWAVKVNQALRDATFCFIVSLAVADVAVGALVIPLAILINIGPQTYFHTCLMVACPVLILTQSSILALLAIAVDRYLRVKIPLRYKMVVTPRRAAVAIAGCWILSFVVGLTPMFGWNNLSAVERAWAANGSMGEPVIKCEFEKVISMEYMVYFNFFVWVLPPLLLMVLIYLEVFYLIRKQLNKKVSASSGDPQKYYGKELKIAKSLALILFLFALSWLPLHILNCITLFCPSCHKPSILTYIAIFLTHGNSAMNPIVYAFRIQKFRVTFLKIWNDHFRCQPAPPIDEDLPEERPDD
Excerpt: radioligand displacement, filtration, Cheng-Prusoff on Adenosine A1 receptor (A1R)

T5 sequence (P29274 whole entry): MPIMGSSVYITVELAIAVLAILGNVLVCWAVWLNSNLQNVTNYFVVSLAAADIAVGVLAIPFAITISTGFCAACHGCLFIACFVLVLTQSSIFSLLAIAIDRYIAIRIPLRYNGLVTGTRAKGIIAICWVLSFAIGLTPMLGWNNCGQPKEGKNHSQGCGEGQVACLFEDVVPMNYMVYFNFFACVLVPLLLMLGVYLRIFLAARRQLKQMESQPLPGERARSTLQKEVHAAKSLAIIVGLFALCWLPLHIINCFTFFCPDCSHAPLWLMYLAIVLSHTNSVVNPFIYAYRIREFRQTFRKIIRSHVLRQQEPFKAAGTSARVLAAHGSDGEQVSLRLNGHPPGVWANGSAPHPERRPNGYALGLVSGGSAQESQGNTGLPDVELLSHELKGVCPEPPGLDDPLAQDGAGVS

- SLV329 Affinity (Adenosine A2B receptor): 6.3±0.1
- SLV329 Affinity [1]: 5.4±0.1
- SLV329 Affinity [2]: 6.1±0.2
- SLV329 Affinity (Adenosine A3 receptor): 6.9±0.1
- SLV329 Affinity (Adenosine A2A receptor): 7.2±0.2
- SLV329 Affinity [3]: 9.2±0.2
Substance: SLV329
